Assay results reported in the supplement of paper PMC10307832.

How the values were obtained:
Assay in all cases: relative viability (nuclei count vs DMSO), 5 days (fraction); higher = more cells survive
Ponatinib + Alpelisib = compound: Cc1ccc(C(=O)Nc2ccc(CN3CCN(C)CC3)c(C(F)(F)F)c2)cc1C#Cc1cnc2cccnn12 [Ponatinib] + Cc1nc(NC(=O)N2CCC[C@H]2C(N)=O)sc1-c1ccnc(C(C)(C)C(F)(F)F)c1 [Alpelisib] (partner 2 µM)
In short: (§1)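 Lung cancer cell lines in 1536-well plates got either a single drug or a fixed anchor-drug dose together with five library-drug doses (not always all listed) in √10 steps, by pin tool, on the day after seeding. Nuclei were counted after 5 days, and relative viability is the treated-to-vehicle ratio of nuclei counts. Values are medians of duplicate plates.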

Ponatinib + Olaparib = compound: Cc1ccc(C(=O)Nc2ccc(CN3CCN(C)CC3)c(C(F)(F)F)c2)cc1C#Cc1cnc2cccnn12 [Ponatinib] + O=C(c1cc(Cc2n[nH]c(=O)c3ccccc23)ccc1F)N1CCN(C(=O)C2CC2)CC1 [Olaparib] (partner 8 µM)
In short: as §1

Pazopanib + Bortezomib = compound: Cc1ccc(Nc2nccc(N(C)c3ccc4c(C)n(C)nc4c3)n2)cc1S(N)(=O)=O [Pazopanib] + CC(C)C[C@H](NC(=O)[C@H](Cc1ccccc1)NC(=O)c1cnccn1)B(O)O [Bortezomib] (partner 0.002 µM)
In short: as §1

Pazopanib + Linsitinib = compound: Cc1ccc(Nc2nccc(N(C)c3ccc4c(C)n(C)nc4c3)n2)cc1S(N)(=O)=O [Pazopanib] + C[C@]1(O)C[C@@H](c2nc(-c3ccc4ccc(-c5ccccc5)nc4c3)c3c(N)nccn32)C1 [Linsitinib] (partner 1 µM)
In short: as §1

Cell Line | relative viability (Ponatinib + Alpelisib; first compound 0.002 µM) | relative viability (Ponatinib + Alpelisib; first compound 0.006325 µM) | relative viability (Ponatinib + Alpelisib; first compound 0.06325 µM) | relative viability (Ponatinib + Alpelisib; first compound 0.2 µM) | relative viability (Ponatinib + Olaparib; first compound 0.002 µM) | relative viability (Ponatinib + Olaparib; first compound 0.006325 µM) | relative viability (Ponatinib + Olaparib; first compound 0.06325 µM) | relative viability (Ponatinib + Olaparib; first compound 0.2 µM) | relative viability (Pazopanib + Bortezomib; first compound 0.01 µM) | relative viability (Pazopanib + Bortezomib; first compound 0.03162 µM) | relative viability (Pazopanib + Bortezomib; first compound 0.1 µM) | relative viability (Pazopanib + Bortezomib; first compound 0.3162 µM) | relative viability (Pazopanib + Bortezomib; first compound 1 µM) | relative viability (Pazopanib + Linsitinib; first compound 0.01 µM) | relative viability (Pazopanib + Linsitinib; first compound 0.03162 µM) | relative viability (Pazopanib + Linsitinib; first compound 0.1 µM) | relative viability (Pazopanib + Linsitinib; first compound 0.3162 µM) | relative viability (Pazopanib + Linsitinib; first compound 1 µM)
ABC-1 | 1.18 | 0.987 | 1.08 | 0.874 | 0.893 | 0.776 | 0.776 | 0.693 | 0.257 | 0.293 | 0.212 | 0.316 | 0.343 | 0.835 | 0.917 | 0.751 | 0.738 | 0.779
NCI-H522 |  |  |  |  | 0.731 | 0.708 | 0.632 | 0.507 |  |  |  |  |  |  |  |  |  | 
PC-14 | 0.856 | 0.906 | 1.05 | 0.879 | 0.334 | 0.359 | 0.347 | 0.284 | 0.976 | 0.805 | 1.16 | 0.858 | 0.856 | 0.971 | 1 | 0.961 | 0.985 | 1
SW 900 |  |  |  |  | 0.958 | 0.867 | 0.95 | 0.725 |  |  |  |  |  |  |  |  |  | 
A549 | 0.772 | 0.931 | 0.949 | 0.634 | 0.299 | 0.384 | 0.394 | 0.384 |  |  |  |  |  | 0.452 | 0.638 | 0.591 | 0.598 | 0.757
A-427 | 1.08 | 1.06 | 1.07 | 0.919 | 0.707 | 0.835 | 0.842 | 0.66 | 0.934 | 1.02 | 0.929 | 0.922 | 1.02 | 1.09 | 1.09 | 1.13 | 1.14 | 1.16
NCI-H1792 | 0.668 | 0.681 | 0.746 | 0.656 | 0.44 | 0.587 | 0.489 | 0.313 |  | 0.958 | 0.916 | 0.949 | 0.935 |  | 0.534 | 0.601 | 0.522 | 0.588
LCLC-97TM1 |  | 0.227 |  | 0.314 | 0.48 | 0.452 | 0.385 | 0.334 | 0.506 | 0.693 | 0.482 | 0.737 | 0.592 |  | 0.229 | 0.154 | 0.2 | 0.211
NCI-H1703 | 0.299 | 0.355 | 0.225 | 0.186 | 0.37 | 0.449 | 0.262 | 0.207 | 0.26 | 0.262 | 0.233 | 0.267 | 0.214 | 0.441 |  | 0.264 | 0.243 | 0.301
LCLC-103H | 0.89 | 0.969 | 1.07 | 1.03 | 0.754 | 0.743 | 0.838 | 0.694 | 0.942 | 0.869 | 1.11 | 1.04 | 1.24 | 0.846 | 1.22 | 1.06 | 1.04 | 1.14
RERF-LC-KJ | 0.904 | 0.739 | 1.02 | 0.889 | 0.874 | 0.879 | 0.988 | 0.793 | 1.03 | 1.05 | 1.05 | 1.16 | 1.04 | 0.889 | 0.912 | 0.825 | 0.782 | 0.912
